US20210230101A1, “COMPOUNDS FOR TREATING DENGUE VIRUS INFECTIONS AND OTHER INFECTIONS” (Dana-Farber Cancer Institute, Inc., priority 2018, published 2021)
Read-outs that look alike come from different tables or passages of the source.

Experiments:
[1] = molecular target: His6-tagged DENV2 sE2 (Dengue virus type 2, UniProt P14340); assay: AlphaScreen competition assay (GNF2-biotin probe vs. envelope protein); type: binding, Dengue virus 2 (DENV2)
Description: Known DENV inhibitors to develop an AlphaScreen assay designed to identify compounds that compete for binding on envelop protein. The AlphaScreen is a bead-based proximity assay that permits measurement of biomolecular interactions of pico- to milli-molar affinities in microplate format. Following excitation of donor beads, energy is transferred to acceptor beads if analytes conjugated to donor and acceptor beads interact. […] We performed cross-titration experiments to optimize the molar concentrations of the probe (GNF2-biotin) and envelope glycoprotein for the assay. We also tested different orders of the addition of the assay components to achieve the best signal-to-noise ratio.

[2] = molecular target: T1, AmpC β-lactamase (Escherichia coli, UniProt P00811); assay: AmpC beta-lactamase non-specific enzyme inhibition assay; type: biochemical; conditions: IC50/μM vs. AmpC
T1 construct: Shoichet lab (UCSF), gift
T1 sequence (P00811 20-377): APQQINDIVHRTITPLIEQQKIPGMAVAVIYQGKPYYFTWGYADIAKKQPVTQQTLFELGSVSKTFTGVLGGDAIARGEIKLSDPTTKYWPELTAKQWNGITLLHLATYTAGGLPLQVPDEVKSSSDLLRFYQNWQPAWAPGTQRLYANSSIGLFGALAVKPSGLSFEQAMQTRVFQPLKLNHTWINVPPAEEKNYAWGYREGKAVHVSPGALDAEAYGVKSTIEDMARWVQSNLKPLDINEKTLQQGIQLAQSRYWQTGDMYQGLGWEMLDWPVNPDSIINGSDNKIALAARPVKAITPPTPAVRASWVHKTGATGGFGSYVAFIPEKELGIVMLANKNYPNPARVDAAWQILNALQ
Description: AmpC beta-lactamase assay. The AmpC β-lactamase was a kind gift from the Shoichet lab (UCSF). The inhibitor was serially diluted (two-fold dilution series from 100 μM) and pre-incubated with 10 nM enzyme in working buffer (50 mM potassium phosphate, pH 7.0) at room temperature for 5 min. Nitrocefin (100 μM, VWR) was added to the solution and carefully mixed. Absorbance of the final mixture was immediately monitored at 470 nm for 3 min.
For both AmpC and MDH assays, the final concentration of DMSO was 2% for all samples. All assays were repeated in the presence of 0.01% Triton X-100. IC50 values of 3-110-22 presented in Table 2 are representative data from two independent experiments; values for the other lead compounds were measured once for each enzymatic assay.

[3] = tested on: VSV-eGFP; assay: VSV-eGFP counter screen; type: cell-based
[4] = tested on: DENV; assay: PRNT plaque reduction assay; type: cell-based; conditions: Dengue virus; plaque reduction by 50%; virus not given
Description: For plaque reduction assays, DENV1, 2, 3, 4 were tested on BHK-21 cells, and ZIKV was tested on Vero cells. Vims inocula were diluted in EBSS to 2500 pfu/ml as the final concentration, and were pre-incubated with different concentrations of small molecule inhibitors (2% DMSO vol/vol final concentration) for 45 min at 37° C., 5% CO2. The mixture (200 μl, 500 pfu of virus) was then added to cells for 1 hour (37° C., 5% CO2) to allow infection, after which the inoculum was removed, and the cells were washed with 1×PBS to remove unbound virus and compound. Cells were overlaid with carboxylmethylcellulose and incubated at 37° C., 5% CO2 to allow the formation of plaques (4 days for DENV1, 2, 3, 4 and 2-3 days for ZIKV). The cells were fixed and plaques visualized by staining of the cell monolayers with crystal violet. Empirical analysis was performed to determine the PRNT50 value, defined as the inhibitor concentration needed to reduce plaque formation by 50%.

[5] = Cytotoxicity (CellTiter-Glo); type: cell-based; conditions: hamster, BHK21 cells, read-out: CC50/μM (toxicity)
Description: The term “CC50” refers to the concentration of an antiviral agent that causes 50% loss of cell viability.
BHK21 cells (MEM with 2% FBS) were incubated with varying concentrations of inhibitor in a 96-well white plate for 24 hours at 37 degrees C. and 5% CO2. CellTiter-Glo (Promega) solution was used to measure viability following the manufacturer's instructions. Luminescence was measured using a Biotek Synergy plate reader. Data were plotted versus the log10 inhibitor concentration, and non-linear regression analysis (Graphpad Prism) was used to determine CC50 values, defined as the inhibitor concentration required to cause 50% loss of cell viability. The maximum concentration tested was 100 μM. Values presented in Table 1 are the average of two or more independent experiments.

[6] = Pharmacokinetic (PK) studies; conditions: mouse, in vivo
Description: FIG. 3. Pharmacokinetic (PK) data for S4105. The compound has a volume of distribution of 0.06 L/kg, which is essentially the blood volume of a mouse, implying that the compound may be sequestered in the plasma. […] The intraperitoneal (IP) dose was well absorbed. 8 hours after the IP dose of 20 mg/kg the plasma concentration for the three mice ranged from 75-200 μM. Even if the compound is 99.95% plasma protein bound, this would still give a free fraction of about 50 nM.
FIG. 4. PK data for ZNL-01-132. The compound has a long half-life in plasma of 5-6 hours. After IP dosing at 20 mg/kg high concentrations were achieved and 8 hours post dose the levels were approximately 2 μM.
PK studies were performed on compounds S4105 and ZNL-01-132.

[7] = tested on: DENV; assay: Antiviral activity: viral infectivity assay (single-cycle viral yield); type: cell-based; conditions: Dengue virus; concentration that reduces single-cycle viral yield by 10-fold
Description: The term “IC90” refers to the concentration of an antiviral agent that reduces single-cycle viral yield by 10-fold.
For the viral infectivity assay, virus inocula were diluted in EBSS to achieve a multiplicity of infection (MOI) of 1, and were pre-incubated with the given small molecule at varying concentrations for 45 min at 37° C. The mixture was then added to cells for 1 hour at 37° C. to allow infection, after which the inoculum was removed and the cells were washed with 1×PBS to remove unbound virus and compound. Cells were overlaid with medium lacking inhibitor and incubated at 37° C. for 20-24 hours, corresponding to a single cycle of infection. Culture supernatants were harvested at this time, and the yield of infectious particles produced was quantified by plaque-forming assay. For initial antiviral screening of HTS “hits,” compounds were tested for activity at 3 and 10 μM. For IC90 value determination, viral yield (plaque-forming units per milliliter) was plotted versus the log of the inhibitor concentration, and non-linear regression analysis of the data (Graphpad Prism) was performed to determine the concentration at which viral yield is reduced 10-fold.

[8] = TX, in the presence of 0.01% Triton X-100

Row | Structure (SMILES) | IC50 [1] [µM] | IC50 ([2]; No TX, without Triton X-100) [µM] | IC50 [2, 8] [µM] | EC50 [4] [µM] | CC50 at 24 h [5] [µM] | IC90 [7] [µM] | further results
1 | O=C(Nc1ccc(Oc2ccc(Cl)cc2)c(Cl)c1)c1cc(F)cc(F)c1O [ZNL-01-132] | 4 | 38 | > 100 | 0.5 | 44 | – | % Inhibition Vs. VSV-eGFP, 2.5 μM ([3]; 2.5 μM): 80%; % Inhibition Vs. VSV-eGFP, 5 μM ([3]; 5 μM): >90%; half-life [6]: 5 to 6 h; concentration at 8 h ([6]; IP 20 mg/kg, 8 hours post dose, read-out: plasma concentration 8 hours after IP dose): ~2 µM
2 | Cc1cc(C(C#N)c2ccc(Cl)cc2)c(Cl)cc1NC(=O)c1cc(I)cc(I)c1O (stereo not drawn) [S4105] | – | 0.3 | > 100 | 0.3 | ~50 | – | Vd [6]: 0.06 L/kg; absorption of intraperitoneal (IP) dose ([6]; ip): well absorbed; concentration at 8 h ([6]; ip, 20 mg/kg): 75 to 200 µM; clearance ([6]; iv): 2.4 mL/h/kg; half-life ([6]; iv): 21 h
3 | Cc1cc(C(C#N)c2ccc(Cl)cc2)c(Cl)cc1NC(=O)c1cc(I)cc(I)c1O (stereo not drawn) [drawing 87] | 0.8 | – | – | – | – | 1 | –
4 | NC(=O)c1cccc(-c2cc(Nc3ccc(OC(F)(F)F)cc3)ncn2)c1 [GNF2, reference compound] | – | – | – | – | – | – | competition of AlphaScreen signal ([1]; GNF2-biotin on donor beads, His6-tagged DENV2 sE2 on acceptor beads): competed away in a dose-dependent fashion
5 | O=C(Nc1ccc(Oc2ccc(Cl)cc2)c(Cl)c1)c1cc(I)cc(I)c1O | 0.8 | – | – | – | – | – | –
6 | Cc1cc(C(C#N)c2ccc(Cl)cc2)c(Cl)cc1NC(=O)c1ccccc1O (stereo not drawn) | 2 | – | – | – | – | 8 | –
